Assay results from patent US20040028656A1, “Survival of neurons” (University of South Florida, a non-profit institution, priority 1998, published 2004).

Tested on: hNT neurons
Assay: Soma size and neurite outgrowth of TH+ hNT cells (image analysis)
Type: cell-based, human
Details: for soma sizes versus control: 5DIV NaCl or KCl-treated cultures; for neurite outgrowth versus control: NaCl and KCl-treated 5DIV
Procedure: The same series of slides immunostained for TH were employed to measure the soma size (μm^2) and neurite outgrowth (μm) of appropriately 50 TH+ cells per representative culture experiment using a computerized image analysis program (Image-Pro Plus, Media Cybernetics, Inc., Silver Springs, Md.) at 20× objective. The results in the morphological assessment study are reported as mean ±SEM and were analyzed using Student's t-test.

SMILES | soma sizes versus control | neurite outgrowth versus control
[Cl-].[K+] [KCl] | not significantly different from control | did not significantly differ from control values
[Cl-].[Na+] [NaCl] | not significantly different from control | did not significantly differ from control values
